From PubChem BioAssay (NCI)
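Grown in 96-well plates, cells were treated for 48 hours with each compound at five concentrations. Insufficient inhibition: endpoint recorded as highest concentration tested. Abbreviation: GI50, concentration required for 50% inhibition of growth. Definition used: TGI = concentration required for complete inhibition of growth.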

What was measured:
Test in all cases: growth of human tumour cells (NCI), 48 h
CCRF-CEM leukemia = system: CCRF-CEM leukemia
HCC-2998 colon = system: HCC-2998 colon
HOP-92 NSCLC = system: HOP-92 NSCLC
NCI-H522 lung = system: NCI-H522 lung
OVCAR-8 ovarian = system: OVCAR-8 ovarian
SF-268 CNS = system: SF-268 CNS
SK-MEL-28 melanoma = system: SK-MEL-28 melanoma
UO-31 renal = system: UO-31 renal

Row | SMILES | GI50 (CCRF-CEM leukemia) [µM] | TGI (CCRF-CEM leukemia) [µM] | GI50 (HCC-2998 colon) [µM] | TGI (HCC-2998 colon) [µM] | GI50 (HOP-92 NSCLC) [µM] | TGI (HOP-92 NSCLC) [µM] | GI50 (NCI-H522 lung) [µM] | TGI (NCI-H522 lung) [µM] | GI50 (OVCAR-8 ovarian) [µM] | TGI (OVCAR-8 ovarian) [µM] | GI50 (SF-268 CNS) [µM] | TGI (SF-268 CNS) [µM] | GI50 (SK-MEL-28 melanoma) [µM] | TGI (SK-MEL-28 melanoma) [µM] | GI50 (UO-31 renal) [µM] | TGI (UO-31 renal) [µM]
1 | COc1cccc(-c2nc(-c3ccc(NS(=O)(=O)c4ccccc4)cc3)[nH]c2-c2ccnc(Br)c2)c1 | 3.14 | > 100 | 2.12 | 4.71 | 2.46 | 6.54 | 2.93 | > 100 | 3.33 | > 100 | 3.34 | > 100 | 2.91 | 31 | 2.29 | 6.89
2 | CCOC(=O)Oc1c(OC)cc(C(=O)c2ccc(OC)c(OC(=O)CCl)c2OC)cc1OC | 0.662 | > 100 | 3.36 | > 100 | 1.78 | > 100 | 0.264 | 1.31 | 2.65 | > 100 | 10.7 | > 100 | 2.31 | > 100 | 3.07 | > 100
3 | C=C1C(=O)OC2C1C(OC(=O)/C(C)=C/C)CC(O)(CCl)C1C(OC(C)=O)C=C(C)C21O (centres undefined) | – | 17.6 | – | 31.9 | – | 27.9 | – | 5.94 | – | 26.5 | – | 32.4 | – | 27.9 | – | 35
4 | COc1cc2c3c(n(CCCO)c(=O)c2cc1OC)-c1cc2c(cc1C3=O)OCO2 | 3.54 | 14.4 | – | – | 0.226 | 11.4 | > 40.8 | > 100 | 13.7 | > 100 | 9.04 | > 100 | > 31.2 | > 100 | > 21.2 | > 100
5 | O=c1oc2ccccc2cc1-c1ccc([N+](=O)[O-])cc1 | – | > 100 | – | > 100 | – | > 100 | – | > 100 | – | > 100 | – | > 100 | – | > 100 | – | > 100
6 | O=C(Nc1cccc(C2=NCCN2)c1)c1ccc(OCCCOc2ccc(C(=O)Nc3cccc(C4=NCCN4)c3)cc2)cc1 | 4 | > 100 | – | – | 1.25 | 7 | – | – | 4.03 | > 100 | – | – | – | – | 13.5 | > 100
7 | O=C(Oc1cccc(Nc2ncnc3ccccc23)c1)c1ccccc1Cl | 19.3 | 65.1 | 20.4 | 39.3 | – | – | 7.23 | 26.8 | 20.2 | 59.1 | 20.8 | 67 | 48.7 | > 100 | 36.4 | > 100
8 | N#Cc1c2ccccc2c2nnc3cc(C(F)(F)F)ccc3n12 | – | – | – | – | 51.5 | > 100 | – | – | 68.6 | > 100 | 19.2 | > 100 | 92.3 | > 100 | 70.3 | > 100
9 | CCNCCNc1cc(-c2ccc(Cl)cc2)c(C#N)c2nc3ccccc3n12 | 0.49 | 2.41 | 1.84 | 3.4 | 1.7 | 3.2 | 2 | 3.84 | – | – | 1.54 | 3 | 1.8 | 3.34 | 1.49 | 2.94
10 | CC1=C(C(=O)Nc2ccc(F)c(Cl)c2)C(c2cccc(O)c2)NC(=S)N1 (centres undefined) | > 50 | > 50 | – | – | > 50 | > 50 | 12.4 | > 50 | 28.5 | > 50 | 17.8 | > 50 | > 50 | > 50 | > 50 | > 50
11 | CS(=O)(=O)c1ccc(Oc2nccc(-c3c(-c4ccc(F)cc4)ncn3C3CCNCC3)n2)cc1 | – | – | > 25 | > 25 | – | – | > 25 | > 25 | > 25 | > 25 | > 25 | > 25 | > 25 | > 25 | > 25 | > 25
12 | CC(=O)C(C(=N)C#N)C(=O)Nc1ccccc1 (centres undefined) | – | > 100 | – | – | – | > 100 | – | > 100 | – | > 100 | – | > 100 | – | > 100 | – | –
13 | COc1ccc(-c2nc3sccn3c2/C=C/C(=O)c2cc(OC)c(OC)c(OC)c2)cc1OC | 2.64 | > 100 | 2.72 | 4.79 | – | – | 1.3 | 3.77 | 2.47 | 7.15 | 2.36 | 6.44 | – | – | 0.639 | 8.19
14 | COc1cccc2c(Nc3ccc(C(=O)NCCNCCO)cc3)cc(-c3ccccc3)nc12 | 20.2 | 48.3 | 49.6 | > 100 | 16 | 51.4 | 20.3 | 53.8 | 42.2 | > 100 | – | – | 35.2 | > 100 | > 100 | > 100
15 | CC(C)(C)[Si](C)(C)OC1[C@@H](O[Si](C)(C)C(C)(C)C)[C@@H](CNC(=O)NC(=O)NC(=O)CI)O[C@H]1n1cnc2c(NC(=O)Nc3ccccc3)ncnc21 (some centres undefined) | 0.0301 | 0.102 | 8.22 | 17.8 | – | – | 0.0262 | 0.0522 | 0.275 | 0.925 | 1.5 | 7.04 | 9.69 | 22.8 | 0.0888 | 0.178
16 | COC(=O)C/C(C)=C/[C@@H](O)[C@H]1O[C@@H]2CC/C(Cl)=C/C/C=C(/C)[C@H](OC(C)=O)CC(=O)O[C@@H]1C2 | – | – | – | – | – | – | 1.29 | > 25 | 4.73 | > 25 | 1.07 | 4.61 | 1.04 | 5.75 | 1.85 | > 25
17 | Cc1ccc(C)c(-n2c(-c3ccc(Br)cc3)csc2=NC(=O)c2ccccc2F)c1 | – | – | > 100 | > 100 | – | – | – | – | > 100 | > 100 | > 100 | > 100 | > 100 | > 100 | > 100 | > 100
18 | CCOC(=O)c1sc2ncn(Cc3cccc(Cl)c3)c(=O)c2c1C | – | – | – | – | 12.2 | 24.5 | 10.9 | 23.3 | 15.1 | 28.4 | 15.1 | 28.4 | 16.8 | 30.4 | 13.5 | 26.4
19 | O=C1NC(=O)C2=C1CCC2O (centres undefined) | – | > 100 | – | > 100 | – | > 100 | – | – | – | > 100 | – | > 100 | – | > 100 | – | > 100
